This note sets out measurements from PMC8868508, “Kassporin-KS1: A Novel Pentadecapeptide from the Skin Secretion of Kassina senegalensis: Studies on the Structure-Activity Relationships of Site-Specific “Glycine-Lysine” Motif Insertions” (Antibiotics, 2022).

The test system of assay [1] is S. aureus NCTC 10788. The format is cell-based, Staphylococcus aureus. Here is the method: (§1) The inhibition of representative microorganisms by peptides was evaluated by the modified broth dilution technique. The microorganisms included Candida albicans (C. albicans, NCTC 10231), Enterococcus faecalis (E. faecalis, NCTC 12697), Staphylococcus aureus (S. aureus, NCTC 10788), Klebsiella pneumoniae (K. pneumoniae, ATCC 43816), Methicillin-resistant Staphylococcus aureus (MRSA, ATCC 12493), Pseudomonas aeruginosa (P. aeruginosa, ATCC 27853), and Escherichia coli (E. coli, NCTC 10418).
(§2) Firstly, the selected microorganism was incubated in conical flasks with 100 mL Mueller Hinton broth (MHB) overnight. Then, the bacterial solution was sub-cultured in 20 mL MHB until it reached the logarithmic growth phase. Meanwhile, the peptide solution was prepared. The peptide was dissolved into 128 × 10^2 μM solution with phosphate-buffered saline (PBS) and then double-diluted into 64, 32, 16, 8, 4, 2, and 1 × 10^2 μM. Each sample solution and positive control ([…] Norfloxacin) was added to 96-well plates and divided into five replicates, 1 μL per well. The blank control was 100 µL MHB, and the growth control was 100 µL bacterial solutions. When the optical density (OD) value corresponding to the microbial concentration reached the value (Gram-positive bacteria: 0.23; Gram-negative bacteria: 0.4; fungi: 0.15) in their logarithmic growth phase, the microorganisms were diluted to the required concentration with MHB (Gram-negative and Gram-positive bacteria: 5 × 10^5 CFU/mL; fungi: 1 × 10^6 CFU/mL).
(§3) The diluted bacterial solution was then added to the 96-well plate at 99 µL per well. The plate was incubated at 37 °C and observed the next day. The MIC was the corresponding lowest peptide concentration without microbial growth. The absorbance of the 96-well plate at 550 nm was measured by Synergy HT Microplate Spectrophotometer (Biotech, Minneapolis, MN, USA), and the obtained values were quantitatively analyzed by Prism 7 software. Subsequently, the concentrations corresponding to the clear solution were removed from the 96-well plate in 10 µL and dropped onto the solidified MHA. The Petri dishes with MHA were cultured overnight, observed and the minimum peptide concentration without colonies was MBC.

The subject of a further assay is MRSA NCTC 12493. In kind it is cell-based, Methicillin-resistant Staphylococcus aureus.
A further assay deals with E. coli NCTC 10418. The format is cell-based, Escherichia coli. As to the method: as §1, §2, §3
The next assay concerns K. pneumoniae ATCC 43816. The format is cell-based, Klebsiella pneumoniae. As to the method:
as §1, §2, §3

The subject of another assay is P. aeruginosa ATCC 27853. In kind it is cell-based, Pseudomonas aeruginosa. Here is the method: as §1, §2, §3
For assay [2], the system named is S. aureus NCTC 10788 biofilm. The format is cell-based, Staphylococcus aureus. To be noted: NCTC 10788, 24 h. As to the method: (§4) As previously described, the MBIC and MBEC of the peptides against bacteria were determined. Staphylococcus aureus (S. aureus, NCTC 10788) and Escherichia coli (E. coli, NCTC 10418) was selected as representative strains. For the MBIC assay, the cultures were sub-cultured to their logarithmic growth phases. The diluted bacterial suspension was incubated with the peptide solution overnight in a 96-well plate. The resulting biofilm was washed with PBS solution, fixed with methanol, and dried. The biofilm was then stained with 0.1% (w/v) crystal violet, washed again with PBS, and dissolved in 30% acetic acid. The absorbance of the solution in each well at 595 nm was counted by the Synergy HT Microplate Spectrophotometer (Biotech, Minneapolis, MN, USA). Compared with the negative control, the lowest concentration that inhibits biofilm formation was MBIC. For the determination of MBEC, the diluted bacterial solution was incubated in the 96-well plate for 24 h, with 100 µL per well. Then, the biofilm was washed and re-incubated with 100 µL peptide-medium solution. After 24 h, the biofilm was again washed, stained, and dissolved as in the MBIC assay. Each well was detected at 595 nm by the same plate reader in MBIC. Compared with the negative control, the lowest concentration to eliminate biofilm was MBEC.

In assay [3] the test system is E. coli NCTC 10418 biofilm. In kind it is cell-based, Escherichia coli. To be noted: NCTC 10418, 24 h. Here is the method:
as §4

For a further assay, the system named is E. faecalis NCTC 12697. In kind it is cell-based, Enterococcus faecalis. Here is the method:
as §1, §2, §3

A further assay relates to C. albicans NCTC 10231. In kind it is cell-based, Candida albicans. As to the method:
as §1, §2, §3

Assay [4] relates to S. aureus NCTC 10788. The format is cell-based, Staphylococcus aureus. Here is the method:
As mentioned in the previous study, the salt and pH sensitivities of AMPs exposed to physiological concentrations of salts or non-neutral environments were tested. MHB containing different ion concentrations (150 mM NaCl, 1 mM MgCl2, and 4 μM FeCl3) and MHB with pH 6.0 and pH 8.0 were prepared. The selected microorganism Staphylococcus aureus (S. aureus, NCTC 10788) was incubated overnight in the prepared medium, sub-cultured to the logarithmic phase, and then diluted to 5 × 10^5 CFU/mL. The subsequent steps were carried out as the MIC/MBC assay.
This is another data set of the same source.

Structures are written as SMILES. ≈ marks a conversion by molar mass, not a printed value. Where two headings read alike, the source gives them in different places. Where a SMILES comes first, the peptide text is derived from it.

As to `CC[C@H](C)[C@H](NC(=O)[C@H](C)NC(=O)CNC(=O)CNC(=O)[C@@H](NC(=O)[C@H](CC(C)C)NC(=O)[C@H](C)NC(=O)[C@H](CC(C)C)NC(=O)[C@H](C)NC(=O)[C@H](CC(C)C)NC(=O)[C@@H](N)Cc1ccccc1)[C@@H](C)CC)C(=O)N[C@@H](C)C(=O)N[C@@H](CCCCN)C(=O)N[C@@H](CC(C)C)C(=O)N[C@@H](CCCCN)C(N)=O` [QUB-1498] (H-FLALALIGGAIAKLK-NH2), the MBC with S. aureus NCTC 10788 [1] is 16 µM; with MRSA NCTC 12493 it was above 128 µM; in the assay with E. coli NCTC 10418, above 128 µM; in the assay on K. pneumoniae ATCC 43816, above 128 µM; in the assay with P. aeruginosa ATCC 27853 it was above 128 µM; in the assay with E. faecalis NCTC 12697, 64 µM. Besides, the MBC in the assay on C. albicans NCTC 10231 is recorded as above 128 µM. Further, the minimal inhibitory concentration (MIC) is 16 µM in the assay on S. aureus NCTC 10788 [1]; 128 µM (≈ 192 µg/mL) in the assay with MRSA NCTC 12493; 32 µM in the assay on E. coli NCTC 10418; above 128 µM in the assay on K. pneumoniae ATCC 43816; above 128 µM in the assay on P. aeruginosa ATCC 27853; 32 µM in the assay on E. faecalis NCTC 12697. Besides, the MIC in the assay on C. albicans NCTC 10231 was 32 µM. The values for the MBEC in assay [2] and in [3] were 128 µM and >128/>128 µM, respectively. Also, the MBIC in assay [3] was >128/>128 µM.
As for `CC[C@H](C)[C@H](NC(=O)[C@H](C)NC(=O)[C@H](CCCCN)NC(=O)CNC(=O)[C@@H](NC(=O)[C@H](CC(C)C)NC(=O)[C@H](C)NC(=O)[C@H](CC(C)C)NC(=O)[C@H](C)NC(=O)[C@H](CC(C)C)NC(=O)[C@@H](N)Cc1ccccc1)[C@@H](C)CC)C(=O)N[C@@H](C)C(=O)N[C@@H](CCCCN)C(=O)N[C@@H](CC(C)C)C(=O)N[C@@H](CCCCN)C(N)=O` [QUB-1570] (H-FLALALIGKAIAKLK-NH2), the MBC in the assay with S. aureus NCTC 10788 [1] was 8 µM; with MRSA NCTC 12493 it was 8 µM (≈ 12.6 µg/mL); in the assay with E. coli NCTC 10418, 32 µM; in the assay with K. pneumoniae ATCC 43816 it was 32 µM; in the assay on P. aeruginosa ATCC 27853, above 128 µM; with E. faecalis NCTC 12697, 8 µM. For the same compound, the MBC with C. albicans NCTC 10231 was found to be 8 µM. The MIC in the assay on S. aureus NCTC 10788 [1] is 2 µM; against MRSA NCTC 12493 it was 4 µM (≈ 6.28 µg/mL); in the assay with E. coli NCTC 10418, 16 µM; with K. pneumoniae ATCC 43816 it was 32 µM; with P. aeruginosa ATCC 27853 it was above 128 µM; in the assay with E. faecalis NCTC 12697, 8 µM. Further, the MIC in the assay with C. albicans NCTC 10231 was determined as 8 µM. Besides, the MBIC is recorded as 4 µM in [2] and 32 µM in assay [3]. In assay [3], the MBEC amounted to 64 µM.
Take `CC[C@H](C)[C@H](NC(=O)[C@H](C)NC(=O)[C@H](CCC(=O)O)NC(=O)[C@H](CCCCN)NC(=O)CNC(=O)[C@H](CC(C)C)NC(=O)[C@H](C)NC(=O)[C@H](CC(C)C)NC(=O)[C@H](C)NC(=O)[C@H](CC(C)C)NC(=O)[C@@H](N)Cc1ccccc1)C(=O)N[C@@H](C)C(=O)N[C@@H](CCCCN)C(=O)N[C@@H](CC(C)C)C(=O)N[C@@H](CCCCN)C(N)=O` [QUB-1585] (H-FLALALGKEAIAKLK-NH2): the MBC is 64 µM with S. aureus NCTC 10788 [1]; 128 µM (≈ 203 µg/mL) against MRSA NCTC 12493; above 128 µM with S. aureus NCTC 10788 [4]; 128 µM in the assay with E. coli NCTC 10418; above 128 µM in the assay with K. pneumoniae ATCC 43816; above 128 µM in the assay on P. aeruginosa ATCC 27853. For the same compound, the MBC in the assay on E. faecalis NCTC 12697 was above 128 µM; in the assay on C. albicans NCTC 10231 it was 128 µM. Further, the MIC in the assay on S. aureus NCTC 10788 [1] was 32 µM; in the assay with MRSA NCTC 12493, 64 µM (≈ 101 µg/mL); in the assay with E. coli NCTC 10418, 64 µM; in the assay with K. pneumoniae ATCC 43816, above 128 µM; in the assay with P. aeruginosa ATCC 27853, above 128 µM; in the assay on E. faecalis NCTC 12697 it was 128 µM. In the assay with C. albicans NCTC 10231, the MIC was 64 µM. Also, the values for the MBEC in [2] and in assay [3] were 128 µM and 128/128 µM, respectively. Moreover, the MBIC is recorded as 64 µM in [2] and 128/128 µM in assay [3].
`CC[C@H](C)[C@H](NC(=O)[C@H](C)NC(=O)[C@H](CCCCN)NC(=O)[C@@H]1CCCN1C(=O)[C@@H](NC(=O)[C@H](CC(C)C)NC(=O)[C@H](C)NC(=O)[C@H](CC(C)C)NC(=O)[C@H](C)NC(=O)[C@H](CC(C)C)NC(=O)[C@@H](N)Cc1ccccc1)[C@@H](C)CC)C(=O)N[C@@H](C)C(=O)N[C@@H](CCCCN)C(=O)N[C@@H](CC(C)C)C(=O)N[C@@H](CCCCN)C(N)=O` [QUB-1609] (H-FLALALIPKAIAKLK-NH2): the MBC in the assay with S. aureus NCTC 10788 [1] is 32 µM; in the assay on MRSA NCTC 12493, 16 µM (≈ 25.7 µg/mL); with E. coli NCTC 10418, 64 µM; in the assay on K. pneumoniae ATCC 43816 it was above 128 µM; with P. aeruginosa ATCC 27853 it was above 128 µM; in the assay on E. faecalis NCTC 12697, 64 µM. In addition, the MBC in the assay with C. albicans NCTC 10231 came out at 32 µM. The MIC with S. aureus NCTC 10788 [1] is 8 µM; in the assay on MRSA NCTC 12493 it was 8 µM (≈ 12.9 µg/mL); in the assay on E. coli NCTC 10418 it was 8 µM; in the assay with K. pneumoniae ATCC 43816, 128 µM; in the assay with P. aeruginosa ATCC 27853 it was above 128 µM; in the assay with E. faecalis NCTC 12697, 16 µM. Further, the MIC with C. albicans NCTC 10231 is listed as 16 µM. The MBEC in assay [2] and in assay [3] was 128 µM in each case. Besides, the MBIC came to 16 µM in [2] and 64 µM in [3].
For the compound `CC[C@H](C)[C@H](NC(=O)[C@H](C)NC(=O)[C@H](CCC(=O)O)NC(=O)[C@H](CCC(N)=O)NC(=O)[C@@H](NC(=O)[C@H](CC(C)C)NC(=O)[C@H](CCCCN)NC(=O)CNC(=O)[C@H](C)NC(=O)[C@H](CC(C)C)NC(=O)[C@@H](N)Cc1ccccc1)[C@@H](C)CC)C(=O)N[C@@H](C)C(=O)N[C@@H](CCCCN)C(=O)N[C@@H](CC(C)C)C(=O)N[C@@H](CCCCN)C(N)=O` [QUB-1643] (H-FLAGKLIQEAIAKLK-NH2), the MBC with S. aureus NCTC 10788 [1] is 64 µM; with MRSA NCTC 12493 it was 128 µM (≈ 210 µg/mL); in the assay on E. coli NCTC 10418, above 128 µM; in the assay with K. pneumoniae ATCC 43816, above 128 µM; in the assay with P. aeruginosa ATCC 27853 it was above 128 µM; with E. faecalis NCTC 12697 it was above 128 µM. The MBC in the assay on C. albicans NCTC 10231 worked out at 128 µM. The MIC is 32 µM with S. aureus NCTC 10788 [1]; 64 µM (≈ 105 µg/mL) in the assay on MRSA NCTC 12493; 128 µM in the assay with E. coli NCTC 10418; above 128 µM in the assay with K. pneumoniae ATCC 43816; above 128 µM in the assay with P. aeruginosa ATCC 27853; 128 µM in the assay with E. faecalis NCTC 12697. Further, in the assay with C. albicans NCTC 10231, the minimum inhibitory concentration (MIC) is given as 64 µM. Besides, the MBEC is recorded as 128/>128 µM in assay [2] and >128/>128 µM in assay [3]. The MBIC in assay [2] is 128/>128 µM; in [3], >128/>128 µM.
